Laboratory results published in ChEMBL document CHEMBL1201862, “PubChem BioAssay data set” (2004).
Several values for one entry are separate records, joined by “and”; a condition that tells them apart may be missing. Equal entries are not always repeated. Activity calls are given as the source filed them.

Assays:
Format in all cases: functional
[1] = target: DNA dC->dU-editing enzyme APOBEC-3A (Homo sapiens, UniProt P31941); assay: SAR analysis of small molecule inhibitors of APOBEC3A DNA Deaminase via a fluorescence-based single-stranded DNA deaminase assay.; settings: read-out: IC50_Mean
[2] = target: DNA dC->dU-editing enzyme APOBEC-3G (Homo sapiens, UniProt Q9HC16); assay: inhibition of APOBEC3G ssDNA deamination – biochemical, fluorescence, single-stranded DNA substrate, SAR follow-up (AID 602136); settings: read-out: IC50_Mean
[3] = target: Serine/threonine-protein kinase pim-1 (Homo sapiens, UniProt P11309)
[4] = target: Cyclin-dependent kinase 7 (Homo sapiens, UniProt P50613);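 further: value comes from a kinome-wide kinase profiling panel in which CDK7 is one member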
[5] = target: Interleukin-1 receptor-associated kinase 4 (Homo sapiens, UniProt Q9NWZ3)
[6] = target: Dual specificity protein kinase CLK4 (Homo sapiens, UniProt Q9HAZ1)
[7] = target: Glycogen synthase kinase-3 beta (Homo sapiens, UniProt P49841);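 further: value comes from a broad kinome profiling panel, with GSK3B as the panel member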
[8] = target: Cyclin-dependent kinase 9 (Homo sapiens, UniProt P50750);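 further: value from the CDK9 entry of a kinome-spanning kinase panel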
[9] = target: Mitogen-activated protein kinase kinase kinase kinase 4 (Homo sapiens, UniProt O95819)
[10] = target: MAP kinase-interacting serine/threonine-protein kinase 2 (Homo sapiens, UniProt Q9HBH9)
[11] = target: Cell division cycle 7-related protein kinase (Homo sapiens, UniProt O00311);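 further: value obtained from a kinome-wide kinase panel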
[12] = target: cAMP-dependent protein kinase catalytic subunit alpha (Homo sapiens, UniProt P17612)
[13] = target: Homeodomain-interacting protein kinase 2 (Homo sapiens, UniProt Q9H2X6);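 further: measured within a kinome-wide kinase profiling panel, HIPK2 being one panel member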
[14] = target: G protein-coupled receptor kinase 5 (Homo sapiens, UniProt P34947); assay: Navigating the Kinome. Panel member name: GPRK5
[15] = target: Casein kinase I isoform alpha (Homo sapiens, UniProt P48729)
[16] = target: Mitogen-activated protein kinase 13 (Homo sapiens, UniProt O15264)
[17] = target: Mitogen-activated protein kinase kinase kinase kinase 2 (Homo sapiens, UniProt Q12851);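 further: measured as one member of a kinome-wide kinase panel, with MAP4K2 as the panel entry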
[18] = target: Mitogen-activated protein kinase kinase kinase kinase 5 (Homo sapiens, UniProt Q9Y4K4);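 further: measured as one member of a kinome-spanning kinase panel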
[19] = target: Tyrosine-protein kinase Blk (Homo sapiens, UniProt P51451);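 further: obtained as one member of a kinome-wide kinase assay panel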
[20] = target: Mast/stem cell growth factor receptor Kit (Homo sapiens, UniProt P10721);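 further: KIT entry within a kinase panel assay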
[21] = SAR analysis of small molecule activators of Apaf-1 using a LZ-Caspase-9/Caspase-3 Fluorescent Selectivity assay - Set 2.; settings: read-out: EC50_Mean
[22] = target: T1, Apoptotic protease-activating factor 1 (Homo sapiens, UniProt O14727); assay: SAR analysis of small molecule Activators of Apaf-1 in a Fluorescent assay - set 2.; settings: read-out: EC50_Mean
T1 sequence (O14727 whole entry): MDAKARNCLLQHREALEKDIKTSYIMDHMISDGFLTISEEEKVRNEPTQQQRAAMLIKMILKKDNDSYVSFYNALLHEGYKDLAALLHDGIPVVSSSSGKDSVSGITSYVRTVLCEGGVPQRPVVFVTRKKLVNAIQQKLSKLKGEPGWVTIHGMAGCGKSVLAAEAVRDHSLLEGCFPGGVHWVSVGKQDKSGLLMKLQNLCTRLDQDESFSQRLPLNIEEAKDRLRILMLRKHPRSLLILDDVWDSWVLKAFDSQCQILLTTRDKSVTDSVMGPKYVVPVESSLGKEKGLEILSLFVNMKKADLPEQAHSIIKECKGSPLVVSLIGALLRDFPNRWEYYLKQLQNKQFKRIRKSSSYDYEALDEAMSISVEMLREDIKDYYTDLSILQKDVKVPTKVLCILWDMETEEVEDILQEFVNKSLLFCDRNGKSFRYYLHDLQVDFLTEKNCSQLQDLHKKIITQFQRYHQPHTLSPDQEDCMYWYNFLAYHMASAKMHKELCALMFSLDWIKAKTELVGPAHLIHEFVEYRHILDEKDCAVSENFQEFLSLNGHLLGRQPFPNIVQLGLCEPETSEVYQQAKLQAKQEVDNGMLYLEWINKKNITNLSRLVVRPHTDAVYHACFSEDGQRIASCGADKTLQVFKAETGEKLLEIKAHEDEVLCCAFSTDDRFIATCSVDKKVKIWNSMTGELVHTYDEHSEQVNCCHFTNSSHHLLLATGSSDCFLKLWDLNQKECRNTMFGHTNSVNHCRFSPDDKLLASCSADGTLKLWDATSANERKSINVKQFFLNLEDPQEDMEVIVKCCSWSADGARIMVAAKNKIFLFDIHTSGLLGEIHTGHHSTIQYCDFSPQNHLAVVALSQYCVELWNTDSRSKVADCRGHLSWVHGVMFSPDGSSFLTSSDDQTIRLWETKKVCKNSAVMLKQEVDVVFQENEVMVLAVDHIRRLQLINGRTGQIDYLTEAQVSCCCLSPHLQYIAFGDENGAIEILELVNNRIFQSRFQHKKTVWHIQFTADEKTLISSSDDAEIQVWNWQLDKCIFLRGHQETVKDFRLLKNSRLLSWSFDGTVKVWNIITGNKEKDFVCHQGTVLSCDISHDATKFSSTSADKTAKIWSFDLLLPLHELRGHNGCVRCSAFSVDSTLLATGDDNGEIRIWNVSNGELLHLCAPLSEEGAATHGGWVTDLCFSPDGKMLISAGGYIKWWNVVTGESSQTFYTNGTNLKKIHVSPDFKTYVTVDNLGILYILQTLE

[23] = target: T1, Apoptotic protease-activating factor 1; assay: SAR analysis of small molecule Activators of Apaf-1 in a Fluorescent assay.; settings: read-out: EC50_Mean

Cell division cycle 7-related protein kinase, sequence (O00311 whole entry): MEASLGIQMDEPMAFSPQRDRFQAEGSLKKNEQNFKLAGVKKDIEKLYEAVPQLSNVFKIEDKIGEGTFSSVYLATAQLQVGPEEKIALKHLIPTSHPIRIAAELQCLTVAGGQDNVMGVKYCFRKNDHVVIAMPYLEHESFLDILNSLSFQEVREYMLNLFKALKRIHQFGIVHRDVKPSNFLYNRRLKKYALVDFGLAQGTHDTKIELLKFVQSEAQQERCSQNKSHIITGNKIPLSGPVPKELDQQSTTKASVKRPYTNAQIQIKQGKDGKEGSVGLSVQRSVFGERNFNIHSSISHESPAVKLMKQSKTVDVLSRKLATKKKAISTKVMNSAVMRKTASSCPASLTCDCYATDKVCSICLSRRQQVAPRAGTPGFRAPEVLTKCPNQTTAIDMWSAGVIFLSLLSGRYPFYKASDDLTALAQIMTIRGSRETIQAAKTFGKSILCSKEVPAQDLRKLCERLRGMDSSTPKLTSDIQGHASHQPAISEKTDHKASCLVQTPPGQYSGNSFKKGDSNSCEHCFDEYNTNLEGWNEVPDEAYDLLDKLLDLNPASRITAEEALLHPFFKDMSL
DNA dC->dU-editing enzyme APOBEC-3A, sequence (P31941 whole entry): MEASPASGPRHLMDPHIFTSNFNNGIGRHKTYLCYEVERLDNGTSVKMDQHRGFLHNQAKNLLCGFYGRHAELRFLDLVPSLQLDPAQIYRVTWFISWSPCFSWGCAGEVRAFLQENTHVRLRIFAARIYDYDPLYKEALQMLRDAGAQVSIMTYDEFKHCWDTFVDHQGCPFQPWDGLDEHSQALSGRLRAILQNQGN
Casein kinase I isoform alpha, sequence (P48729 whole entry, canonical isoform): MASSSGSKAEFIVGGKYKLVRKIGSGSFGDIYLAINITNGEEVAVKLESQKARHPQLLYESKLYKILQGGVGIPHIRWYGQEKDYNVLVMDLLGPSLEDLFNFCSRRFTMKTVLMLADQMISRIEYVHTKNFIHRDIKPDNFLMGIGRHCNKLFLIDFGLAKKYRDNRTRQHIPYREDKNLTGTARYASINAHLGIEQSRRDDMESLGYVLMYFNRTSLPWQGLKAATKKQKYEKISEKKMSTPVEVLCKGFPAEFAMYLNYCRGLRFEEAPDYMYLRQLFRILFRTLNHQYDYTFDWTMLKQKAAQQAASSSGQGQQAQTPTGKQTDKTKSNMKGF
G protein-coupled receptor kinase 5, sequence (P34947 whole entry, canonical isoform): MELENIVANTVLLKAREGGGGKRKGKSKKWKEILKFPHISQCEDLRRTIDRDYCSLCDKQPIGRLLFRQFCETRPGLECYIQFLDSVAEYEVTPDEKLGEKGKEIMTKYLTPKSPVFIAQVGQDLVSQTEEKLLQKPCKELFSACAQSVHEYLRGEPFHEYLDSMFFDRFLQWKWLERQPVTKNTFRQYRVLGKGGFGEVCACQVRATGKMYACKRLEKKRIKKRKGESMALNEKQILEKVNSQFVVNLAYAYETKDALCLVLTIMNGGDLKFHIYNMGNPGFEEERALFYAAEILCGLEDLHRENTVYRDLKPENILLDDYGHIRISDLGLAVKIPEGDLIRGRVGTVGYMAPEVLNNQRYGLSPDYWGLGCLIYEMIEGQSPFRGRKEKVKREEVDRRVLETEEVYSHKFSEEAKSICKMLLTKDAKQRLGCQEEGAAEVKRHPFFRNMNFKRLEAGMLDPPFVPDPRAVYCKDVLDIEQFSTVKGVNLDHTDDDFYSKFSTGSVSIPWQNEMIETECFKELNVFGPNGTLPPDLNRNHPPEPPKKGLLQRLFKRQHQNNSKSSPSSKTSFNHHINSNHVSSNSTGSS
Serine/threonine-protein kinase pim-1, sequence (P11309 whole entry): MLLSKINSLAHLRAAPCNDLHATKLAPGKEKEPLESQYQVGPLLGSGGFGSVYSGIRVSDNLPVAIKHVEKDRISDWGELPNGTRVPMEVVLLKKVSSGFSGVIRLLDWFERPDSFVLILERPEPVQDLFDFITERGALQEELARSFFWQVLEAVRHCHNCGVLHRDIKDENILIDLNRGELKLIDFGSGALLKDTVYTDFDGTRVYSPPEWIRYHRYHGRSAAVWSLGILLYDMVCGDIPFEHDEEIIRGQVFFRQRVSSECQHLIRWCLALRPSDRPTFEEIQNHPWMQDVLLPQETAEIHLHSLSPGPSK
Tyrosine-protein kinase Blk, sequence (P51451 whole entry): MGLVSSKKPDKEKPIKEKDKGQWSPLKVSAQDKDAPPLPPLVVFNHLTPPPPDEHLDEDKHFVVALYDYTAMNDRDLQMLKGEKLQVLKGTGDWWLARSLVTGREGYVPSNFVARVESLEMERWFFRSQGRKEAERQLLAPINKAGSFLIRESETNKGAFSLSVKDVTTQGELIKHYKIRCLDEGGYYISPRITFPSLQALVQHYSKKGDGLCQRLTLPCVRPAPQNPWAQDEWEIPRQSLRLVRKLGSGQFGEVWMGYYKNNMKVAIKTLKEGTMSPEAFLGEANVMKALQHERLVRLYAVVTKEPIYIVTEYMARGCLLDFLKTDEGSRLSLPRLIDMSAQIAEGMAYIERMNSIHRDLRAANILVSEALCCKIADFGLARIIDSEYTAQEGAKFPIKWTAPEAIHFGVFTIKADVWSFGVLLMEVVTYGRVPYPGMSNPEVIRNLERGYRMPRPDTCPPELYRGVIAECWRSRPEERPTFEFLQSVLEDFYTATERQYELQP
Cyclin-dependent kinase 7, sequence (P50613 whole entry): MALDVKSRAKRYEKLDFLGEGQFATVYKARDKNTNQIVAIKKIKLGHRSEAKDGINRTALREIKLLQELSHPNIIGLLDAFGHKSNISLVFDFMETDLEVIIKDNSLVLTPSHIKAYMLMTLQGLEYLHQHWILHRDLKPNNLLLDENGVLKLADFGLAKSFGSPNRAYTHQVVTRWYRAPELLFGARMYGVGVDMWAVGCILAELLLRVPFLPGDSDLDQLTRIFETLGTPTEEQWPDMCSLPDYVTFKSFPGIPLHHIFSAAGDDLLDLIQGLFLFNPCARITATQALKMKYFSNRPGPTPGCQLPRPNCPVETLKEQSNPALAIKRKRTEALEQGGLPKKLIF
Mast/stem cell growth factor receptor Kit, sequence (P10721 whole entry): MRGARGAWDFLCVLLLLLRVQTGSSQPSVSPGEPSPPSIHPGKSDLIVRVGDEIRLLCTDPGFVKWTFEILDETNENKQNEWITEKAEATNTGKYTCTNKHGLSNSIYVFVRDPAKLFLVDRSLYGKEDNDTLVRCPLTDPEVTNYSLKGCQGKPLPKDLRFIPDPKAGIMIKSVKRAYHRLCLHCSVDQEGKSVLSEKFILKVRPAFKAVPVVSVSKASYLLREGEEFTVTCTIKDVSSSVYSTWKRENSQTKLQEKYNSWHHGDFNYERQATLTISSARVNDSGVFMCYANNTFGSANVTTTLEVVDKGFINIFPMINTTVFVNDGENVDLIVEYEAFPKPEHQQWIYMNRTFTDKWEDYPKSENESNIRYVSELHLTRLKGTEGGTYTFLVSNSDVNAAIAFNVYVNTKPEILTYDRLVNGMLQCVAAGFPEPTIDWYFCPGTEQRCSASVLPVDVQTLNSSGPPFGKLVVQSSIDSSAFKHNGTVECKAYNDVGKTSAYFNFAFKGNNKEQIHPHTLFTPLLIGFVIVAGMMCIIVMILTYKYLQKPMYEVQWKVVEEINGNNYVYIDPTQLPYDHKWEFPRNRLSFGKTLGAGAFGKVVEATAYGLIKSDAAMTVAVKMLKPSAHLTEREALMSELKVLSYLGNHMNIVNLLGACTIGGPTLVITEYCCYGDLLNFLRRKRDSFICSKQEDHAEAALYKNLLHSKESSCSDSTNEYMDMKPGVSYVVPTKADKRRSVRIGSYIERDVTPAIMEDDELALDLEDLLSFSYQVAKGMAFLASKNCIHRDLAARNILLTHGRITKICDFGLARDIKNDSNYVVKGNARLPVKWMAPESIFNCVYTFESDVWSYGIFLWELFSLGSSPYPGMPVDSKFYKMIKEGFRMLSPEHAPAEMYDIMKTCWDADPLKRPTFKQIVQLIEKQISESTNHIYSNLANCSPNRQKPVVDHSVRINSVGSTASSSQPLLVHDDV
Dual specificity protein kinase CLK4, sequence (Q9HAZ1 whole entry): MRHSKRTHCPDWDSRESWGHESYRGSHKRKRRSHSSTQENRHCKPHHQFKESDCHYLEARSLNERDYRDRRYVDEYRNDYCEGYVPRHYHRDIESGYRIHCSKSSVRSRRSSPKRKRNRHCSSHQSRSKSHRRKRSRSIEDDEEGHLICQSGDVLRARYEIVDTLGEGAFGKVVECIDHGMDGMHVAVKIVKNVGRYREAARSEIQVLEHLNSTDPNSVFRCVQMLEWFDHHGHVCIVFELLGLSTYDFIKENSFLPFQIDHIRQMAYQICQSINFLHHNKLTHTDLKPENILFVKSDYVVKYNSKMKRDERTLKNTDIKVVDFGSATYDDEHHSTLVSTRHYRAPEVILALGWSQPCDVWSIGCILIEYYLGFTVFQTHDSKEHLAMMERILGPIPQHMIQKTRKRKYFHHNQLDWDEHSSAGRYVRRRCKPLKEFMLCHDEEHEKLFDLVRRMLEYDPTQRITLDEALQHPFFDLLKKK
DNA dC->dU-editing enzyme APOBEC-3G, sequence (Q9HC16 whole entry): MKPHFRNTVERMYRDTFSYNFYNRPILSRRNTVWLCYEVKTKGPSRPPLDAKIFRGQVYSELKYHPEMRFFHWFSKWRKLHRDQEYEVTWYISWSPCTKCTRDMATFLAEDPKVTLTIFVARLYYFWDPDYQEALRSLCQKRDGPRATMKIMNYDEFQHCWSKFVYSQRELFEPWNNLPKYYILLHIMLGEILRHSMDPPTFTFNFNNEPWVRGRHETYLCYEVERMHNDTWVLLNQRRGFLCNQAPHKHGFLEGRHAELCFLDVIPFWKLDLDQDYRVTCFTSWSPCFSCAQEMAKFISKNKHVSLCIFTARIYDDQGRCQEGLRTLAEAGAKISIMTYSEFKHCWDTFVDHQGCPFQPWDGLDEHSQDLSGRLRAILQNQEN

Question: For `CCCn1c(=O)c2ccc(C(=O)NC(C)C)cc2n2c(=O)n(Cc3c(F)cccc3Cl)nc12`, which IC50 [1] is on record?
Answer: > 99000 nM (inactive)

Question: What about the IC50 [2] of the same compound?
Answer: > 99000 nM (inactive)

Question: What does the source list for `CN(C)c1cc(-c2ccncc2)cc2[nH]nc(N)c12`?
Answer: Ki [3]: 5010 nM (active); Ki [4]: 200 nM (active); Ki [5]: 398 nM (active); Ki [6]: 12.6 nM (active); Ki [7]: 1260 nM (active); Ki [8]: 100 nM (active); Ki [9]: 100 nM (active); Ki [10]: 126 nM (active); Ki [11]: 12.6 nM (active); Ki [12]: 501 nM (active); Ki [13]: 2000 nM (active)

Question: With `NS(=O)(=O)OCC1CC(n2ccc3c(NC4CCc5ccccc54)ncnc32)CC1O` (centres undefined) as the compound, how does the Ki [14] read?
Answer: 2510 nM (active)

Question: What about the Ki [15] of the same compound?
Answer: 3160 nM (active)

Question: Which Ki [16] does the source give for `CC1(O)CC(c2nc(-c3ccc4ccc(-c5ccccc5)nc4c3)c3c(N)nccn23)C1` (centres undefined) here?
Answer: > 7940 nM (inactive)

Question: And the Ki [17]?
Answer: 794 nM (active)

Question: And the Ki [18]?
Answer: 316 nM (active)

Question: And the Ki [11]?
Answer: > 1260 nM (inactive)

Question: And the Ki [19]?
Answer: 316 nM (active)

Question: And the Ki [20]?
Answer: > 1260 nM (inactive)

Question: With `Cc1nn(CC(C)C(=O)O)c(C)c1Br` (centres undefined) as the compound, how does the EC50 [21] read?
Answer: > 100 µM (inactive) and > 99 µM (inactive)

Question: And the EC50 [22]?
Answer: 4.75 µM (active) and 3.41 µM (active) and 12.7 µM (active)

Question: And the EC50 [23]?
Answer: 5130 nM (active)
